Assay results from patent publication EP0543245A1, “Renin inhibiting amino acid derivatives” (F. HOFFMANN-LA ROCHE AG, priority 1991, dated 1993).

Molecular target: T1, Human-Renin (Homo sapiens, UniProt P00797)
T1 sequence (P00797 67-406): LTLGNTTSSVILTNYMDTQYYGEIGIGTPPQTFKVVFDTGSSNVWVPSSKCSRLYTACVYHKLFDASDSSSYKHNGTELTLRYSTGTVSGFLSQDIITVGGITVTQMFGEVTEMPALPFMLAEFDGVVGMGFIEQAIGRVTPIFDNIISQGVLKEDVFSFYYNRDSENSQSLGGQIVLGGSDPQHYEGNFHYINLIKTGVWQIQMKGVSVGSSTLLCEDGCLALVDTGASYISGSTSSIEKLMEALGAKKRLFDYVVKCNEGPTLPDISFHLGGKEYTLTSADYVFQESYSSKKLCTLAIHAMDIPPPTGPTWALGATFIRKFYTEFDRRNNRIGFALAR
Experiment: In vitro test with pure human renin
Assay type: biochemical
Settings: human tetradecapeptide renin substrate (hTD), pH 7.4, 3 h at 37°C vs 4°C, angiotensin I measured by RIA, read-out: IC₅₀-Werte
Procedure: In vitro-Test mit reinem Human-Renin
Der Test wird in Eppendorf Röhrchen durchgeführt. Die Inkubationsmischung besteht aus (1) 100 µl Human-Renin in Puffer A (0,1M Natriumphosphatlösung, pH 7.4, enthaltend 0,1% Rinderserumalbumin, 0,1% Natriumazid und 1 mM Aethylendiamintetraessigsäure), genügend für eine Renin-Aktivität von 2-3 ng Angiotensin I/ ml/Std.; (2) 145 µl Puffer A; (3) 30 µl von 10 µM humanem Tetradekapeptid-Reninsubstrat (hTD) in 10 mM Salzsäure; (4) 15 µl Dimethylsulfoxid mit bzw. ohne Hemmer und (5) 10 µl einer 0,03 molaren Lösung von Hydroxychinolinsulfat in Wasser.
Die Proben werden drei Stunden bei 37°C bzw. 4°C in Triplikaten inkubiert. 2 x 100 µl Proben pro Versuchsröhrchen werden dann verwendet, um die Produktion von Angiotensin I via RIA (standard radioimmunoassay; Clinical Assay solid phase kit) zu messen. Kreuzreaktivitäten der verwendeten Antikörper im RIA sind: Angiotensin I 100%; Angiotensin II 0,0013%; hTD (Angiotensin I-Val-Ile-His-Ser-OH) 0,09%. Die Produktion von Angiotensin I wird durch die Differenz zwischen dem Versuch bei 37°C und demjenigen bei 4°C bestimmt.
Folgende Kontrollen werden mitgeführt: • (a) Inkubation von hTD-Proben ohne Renin und ohne Hemmer bei 37°C und 4°C. Die Differenz zwischen diesen beiden Werten ergibt den Grundwert der Angiotensin I-Produktion. • (b) Inkubation von hTD-Proben mit Renin, jedoch ohne Hemmer bei 37°C und 4°C. Die Differenz zwischen diesen Werten ergibt den Maximalwert der Angiotensin I-Produktion.
In jeder Probe wird von der ermittelten Angiotenin I-Produktion der Grundwert der Angiotensin I-Produktion abgezogen. Die Differenz zwischen dem Maximalwert und dem Grundwert ergibt den Wert der maximalen Substrathydrolyse (=100%) durch Renin.
Die Resultate werden als IC₅₀-Werte angegeben, welche diejenige Konzentration des Hemmers bezeichnen, bei welcher die enzymatische Aktivität um 50% gehemmt wird. Die IC₅₀-Werte werden aus einer linearen Regressionskurve aus einem logit-log plot ermittelt.

In order of rising IC50:
1. O=C(N[C@@H](CC1CCCCC1)[C@@H](O)[C@@H](O)C1CC1)C(Cc1cscn1)c1nnc2c(C3CC3)nc(-c3cccnc3)cn12 (single isomer, unassigned) [B]  2 nM
2. O=C(N[C@@H](CC1CCCCC1)[C@@H](O)[C@@H](O)C1CC1)C(Cc1cscn1)c1nnc2c(CC3CC3)nc(-c3cccnc3)cn12 (single isomer, unassigned) [D]  2.3 nM
3. C=CCC(C(=O)N[C@@H](CC1CCCCC1)[C@@H](O)[C@@H](O)C1CC1)c1nnc2c(CCC)nc(-c3cccnc3)cn12 (stereo partly drawn) [G, (R,S)-α-Allyl-N-[(1S,2R,3S)-1-(cyclohexylmethyl)3-cyclopropyl-2,3-dihydroxypropyl]-8-propyl-6-(3-pyridyl)-s-triazolo[4,3-a]pyrazin-3-acetamid]  16 nM
4. O=C(N[C@@H](CC1CCCCC1)[C@@H](O)[C@@H](O)C1CC1)C(Cc1cccnc1)c1nnc2c(CC3CC3)nc(-c3cccnc3)cn12 (single isomer, unassigned) [C]  17 nM
5. O=C(N[C@@H](CC1CCCCC1)[C@@H](O)[C@@H](O)C1CC1)C(Cc1cccnc1)c1nnc2c(C3CC3)nc(-c3cccnc3)cn12 (single isomer, unassigned) [A]  51 nM
6. O=C(N[C@@H](Cc1ccccc1)[C@@H](O)[C@@H](O)C1CC1)C(Cc1cccnc1)c1nnc2c(C3CC3)nc(-c3cccnc3)cn12 (stereo partly drawn) [E, (R,S)-N-[(1S,2R,3S)-1-Benzyl-3-cyclopropyl-2,3-dihydroxypropyl]-8-cyclopropyl-6-(3-pyridyl)-α-(3-pyridylmethyl)-s-triazolo[4,3-a]pyrazin-3-acetamid]  100 nM
7. CC(C)Cc1nc(-c2cccnc2)nn2c(C(Cc3cccnc3)C(=O)N[C@@H](CC3CCCCC3)[C@@H](O)[C@@H](O)C3CC3)nnc12 (single isomer, unassigned) [F]  150 nM
